Reference: patent publication US20050009889A1 (priority 2002, published 2005)

Tests used:
Format in all cases: in vivo
[1] = system: Erysiphe graminis f. sp. tritici; test: Test A: preventive control of wheat powdery mildew on wheat seedlings; conditions: wheat seedlings sprayed to run-off, inoculated next day, rated after 7 days; concentration not given
Description: (§1) General protocol for preparing test suspensions: Test compounds are first dissolved in acetone in an amount equal to 3% of the final volume and then suspended at the desired concentration (in ppm) in acetone and purified water (50/50 mix) containing 250 ppm of the surfactant Trem® 014 (polyhydric alcohol esters). The resulting test suspensions are then used in the following tests. Spraying a 200 ppm test suspension to the point of run-off on the test plants is the equivalent of a rate of 500 g/ha.
The test suspension was sprayed to the point of run-off on wheat seedlings. The following day the seedlings were inoculated with a spore dust of Erysiphe graminis f. sp. tritici, (the causal agent of wheat powdery mildew) and incubated in a growth chamber at 20° C. for 7 days, after which disease ratings were made.

Pyricularia oryzae = conditions: rice seedlings sprayed to run-off, inoculated next day; concentration not given
Plasmopara viticola [2] = test: Test E: preventive control of grape downy mildew on grape seedlings; conditions: grape seedlings sprayed to run-off, inoculated next day; concentration not given
Description: as §1
The test suspension was sprayed to the point of run-off on grape seedlings. The following day the seedlings were inoculated with a spore suspension of Plasmopara viticola (the causal agent of grape downy mildew) and incubated in a saturated atmosphere at 20° C. for 24 h, moved to a growth chamber at 20° C. for 6 days, and then incubated in a saturated atmosphere at 20° C. for 24 h, after which disease ratings were made.

Phytophthora infestans [3] = conditions: tomato seedlings sprayed to run-off, inoculated next day; concentration not given
Puccinia recondita = test: Test B: preventive control of wheat leaf rust on wheat seedlings; conditions: wheat seedlings sprayed to run-off, inoculated next day; concentration not given
Description: as §1
The test suspension was sprayed to the point of run-off on wheat seedlings. The following day the seedlings were inoculated with a spore suspension of Puccinia recondita (the causal agent of wheat leaf rust) and incubated in a saturated atmosphere at 20° C. for 24 h, and then moved to a growth chamber at 20° C. for 6 days, after which disease ratings were made.

Plasmopara viticola [4] = test: Test G: curative control of grape downy mildew on grape seedlings; conditions: grape seedlings inoculated, sprayed next day (curative); concentration not given
Description: as §1
Grape seedlings are inoculated with a spore suspension of Plasmopara viticola (the casual agent of grape downy mildew) and incubated in a saturated atmosphere at 20° C. for 24 h. The next day, test suspension is sprayed to the point of run-off and the treated plants are moved to a growth chamber at 20° C. for 6 days, and then incubated in a saturated atmosphere at 20° C. for 24 h, after which disease ratings are made.

Phytophthora infestans [5] = conditions: seedlings inoculated, sprayed next day (curative), concentration not given

| SMILES | Test A disease control rating (100 = 100% disease control, 0 = no control) [1] | Test C disease control rating (100 = 100% disease control, 0 = no control) (Pyricularia oryzae) | Test E disease control rating (100 = 100% disease control, 0 = no control) (Plasmopara viticola [2]) | Test D disease control rating (100 = 100% disease control, 0 = no control) (Phytophthora infestans [3]) | Test B disease control rating (100 = 100% disease control, 0 = no control) (Puccinia recondita) | Test G disease control rating (100 = 100% disease control, 0 = no control) (Plasmopara viticola [4]) | Test F disease control rating (100 = 100% disease control, 0 = no control) (Phytophthora infestans [5]) |
| --- | --- | --- | --- | --- | --- | --- | --- |
| CCOc1ncccc1C(=O)NCc1ncc(C(F)(F)F)cc1Cl [Compound 10] | 0% | 0% | 23% | 3% | 9% | 23% | – |
| Cc1ccc(C(=O)NCc2ncc(C(F)(F)F)cc2Cl)c(Cl)n1 [Compound 11] | 0% | 90% | 98% | 100% | 19% | 99% | 0% |
| O=C(NCc1ncc(C(F)(F)F)cc1Cl)c1ccc(C(F)(F)F)nc1Br [Compound 12] | 0% | 80% | 0% | 32% | 9% | 0% | – |
| Cc1ccc(C(=O)NCc2ncc(C(F)(F)F)cc2Cl)c(O)n1 [Compound 13] | 0% | 0% | 8% | 7% | 9% | 8% | – |
| Cc1nc(C(F)(F)F)ccc1C(=O)NCc1ncc(C(F)(F)F)cc1Cl [Compound 14] | 0% | 87% | 8% | 25% | 28% | 8% | – |
| Cc1nc(C(F)(F)C(F)(F)F)ccc1C(=O)NCc1ncc(C(F)(F)F)cc1Cl [Compound 15] | 69% | 88% | 8% | 16% | 68% | 8% | – |
| COc1nc(C(F)(F)F)ccc1C(=O)NCc1ncc(C(F)(F)F)cc1Cl [Compound 16] | 0% | 0% | 0% | 7% | 0% | 0% | – |
| Cc1nc(Cl)ccc1C(=O)NCc1ncc(C(F)(F)F)cc1Cl [Compound 17] | 0% | 13% | 16% | 79% | 9% | 16% | – |
| O=C(NCc1ncc(C(F)(F)F)cc1Cl)c1ccc(C(F)(F)F)nc1 [Compound 18] | 0% | 0% | 0% | 25% | 32% | 0% | – |
